Legend:
[1] = Dynamic vapor sorption (DVS) analysis; format: physicochemical
Procedure: Dynamic Vapor Sorption (DVS)
The analyses were performed on a Surface Measurements System DVS Intrinsic. The samples (few milligrams of product obtained by carrying out the above scheme 5) were placed in an open aluminum pan. Analyses were performed at 25° C.
Relative humidity was scanned between 0% RH and 95% RH with 10% RH steps (40-0-95-0-95; unless stated otherwise). The stability criterion was a variation in mass lower than 0.002% on a 5 min. window (with a minimum step time of 10 min and a maximum of 100 min).

[2] = Thermogravimetric analysis (TGA); format: physicochemical; conditions: about 25° C. to 250° C., before and after melting
Procedure: The analyses were performed on a Perkin Elmer Pyris 1 TGA. The samples (few milligrams of product obtained by carrying out the above scheme 5) were placed in an aluminum pan and the cover was crimped. Analyses were performed under nitrogen purge (20 mL/min) and the cover was punctured at the beginning of the analysis.
Temperature scans were carried out between 25° C. and 300° C. at a speed of 10°/min (unless stated otherwise).

[3] = Stability of polymorphic forms (maturation at room temperature, cross-seeding tests); format: physicochemical; conditions: 25° C., several days of maturation
Procedure: Other polymorphic forms could be obtained by recrystallizing out from specific organic solvents starting from the crystalline form of the invention. However, said other polymorphic forms are not stable after several days of maturation at room temperature (more specifically at 25° C.).

[4] = Compression test followed by X-ray diffraction; format: physicochemical; conditions: pressure of 10 tons for 5 min, 13 mm die
Procedure: Compression Test The sample was introduced into a die with 13 mm diameter (m=103.83 mg). The sample was then compressed with a hydraulic press at a pressure of 10 tons for 5 minutes, and immediately analyzed by X-ray diffraction.

glioblastoma = conditions: prior art, J. Med. Chem. 2012, 55, 2196-2211; cited from earlier work

SMILES: O=P1(c2ccccc2)OC(COCc2ccccc2)C(OCc2ccccc2)C(OCc2ccccc2)C1O (centres unmarked) [crystalline form of compound I, 3-Hydroxy-4,5-bis-benzyloxy-6-benzyloxymethyl-2-phenyl-2-oxo-2λ5-[1,2]oxaphosphinane]
- Hygroscopicity ([1]; DVS, 0% RH to 95% RH, 25° C.): non-hygroscopic
- DVS weight loss ([1]; drying steps, 25° C., relative humidity 0% RH to 95% RH): lower than 0.1%
- XRPD pattern after DVS analysis compared with before ([1]; sample kept at 95% RH on the final step): same profile
- DVS weight gain with respect to the initial weight ([1]; steps at higher relative humidity conditions, 25° C.): 0.1%
- Weight loss by TGA [2]: no significant weight loss
- Relative stability of polymorphic form [3]: most stable form
- Solid state stability after compression (diffraction pattern vs starting material) [4]: same peaks

SMILES: O=[P@@]1(c2ccccc2)O[C@H](COCc2ccccc2)[C@@H](OCc2ccccc2)[C@H](OCc2ccccc2)[C@H]1O [PST3.1a]
- Relative potency among the four diastereoisomers (glioblastoma): most potent diastereoisomer

Source: patent US10597414B2, “Crystalline polymorphic form of 3-hydroxy-4,5-bis-benzyloxy-6-benzyloxymethyl-2-phenyl-2-OXO-2λ5-[1,2]oxaphosphinane” (PHOST'IN, priority 2016, dated 2020)
